Results on one molecule are retold here after US6391339B1, “Use of oligosaccharide for preventing blood clotting in extracorporeal blood circuits” (Akzo Nobel N.V., priority 1997, dated 2002).

Molecules are shown by their SMILES.

The subject of the assay is patients undergoing chronic intermittent haemodialysis. Conditions: 12 haemodialysis patients; half an hour before the end of the last dialysis.

Procedure: The study consisted of 2 phases (block A and block B). In block A, 10 mg of Org 31540/SR 90107 A was administered. Thereafter, in block B, 8, 6, and 4 mg of Org 31540/SR 90107 A were used.
Medication was given as an intravenous bolus predialysis for 1 dialysis each week. Efficacy was assessed by determining patency of the dialyzer, buffer and bubble chamber, every hour during dialysis by visual examination and by blood sampling of specific coagualtion, heamatologic and biochemical parameters. Anti-Xa plasma samples, to determine pharmacokinetics, were taken every hour during dialysis and 1 hour after dialysis and daily for 3 days post-dialysis. Safety was assessed by evaluating major and minor bleeding complications each dialysis.

Take `CO[C@H]1O[C@H](COS(=O)(=O)O)[C@@H](O[C@@H]2O[C@@H](C(=O)O)[C@@H](O[C@H]3O[C@H](COS(=O)(=O)O)[C@@H](O[C@@H]4O[C@H](C(=O)O)[C@@H](O[C@H]5O[C@H](COS(=O)(=O)O)[C@@H](O)[C@H](O)[C@H]5NS(=O)(=O)O)[C@H](O)[C@H]4O)[C@H](OS(=O)(=O)O)[C@H]3NS(=O)(=O)O)[C@H](O)[C@H]2OS(=O)(=O)O)[C@H](O)[C@H]1NS(=O)(=O)O` [Org 31540/SR 90107 A, methyl O—(2-deoxy-2-sulphoamino-6-O-suplho-α-D-glucopyranosyl)-(1→4)—O—(β-D-glucopyranosyluronic acid)-(1→4)—O—(2-deoxy-2-sulphoamino-3,6-di-O-sulpho-α-D-glucopyranosyl)-(1→4)—O—(2-O-sulpho-α-L-idopyranosyluronic acid)-(1→4)-2-deoxy-2-sulphoamino-6-O-sulpho-α-D-glucopyranoside]: the “clot in the buffer chamber making dialysis impossible” value is recorded as “Only in one patient”.
